Results reported in article PMC12028472, “Marine-Derived Yaequinolone Derivative CHNQD-02792 Suppresses Colorectal Cancer Cell Proliferation and Induces Apoptosis via MAPK Pathway Modulation” (Marine Drugs, 2025).

Legend:
HT-29 = assay: MTT assay, HT-29 cells; assay type: cell-based; settings: Homo sapiens, 72 h
Experimental: (§1) Human colorectal adenocarcinoma cells HT-29, HCT-116, DLD-1, LS-174T, RKO, and LoVo, as well as mouse colorectal carcinoma cell CT-26, were purchased from the Chinese Academy of Sciences Shanghai Cell Bank.
(§2) Cells stored at −80 °C were rapidly thawed in a 37 °C water bath, centrifuged to collect, and resuspended in a complete medium for culturing in a 37 °C, 5% CO2 incubator. Then, they were rinsed twice with PBS, digested with trypsin, and resuspended in a complete medium after detachment. HT-29, HCT-116, DLD-1, and CT-26 cells were cultured in RPMI-1640 medium supplemented with 10% FBS and 1% penicillin-streptomycin. LS-174T cells were cultured in DMEM-H medium, LoVo in Ham’s F-12K medium, and RKO in MEM.
(§3) Cells in the logarithmic growth phase were seeded in 96-well plates at 4000 cells per well, adjusted based on growth rates, and incubated overnight at 37 °C with 5% CO2. Experimental wells were treated with yaequinolone derivatives at concentrations of 0.4, 2, 10, 20, and 50 μM, while control wells received equivalent dilutions of DMSO to minimize effects. Each group was prepared in five replicates and incubated for 72 h. After removing the drug-containing medium, 100 μL of MTT solution (5 mg/mL) was added to each well and incubated at 37 °C for 4 h. The solution was then aspirated, replaced with 200 μL of DMSO, incubated for 10 min at 37 °C, and shaken before measuring absorbance (OD) at 570 nm using a microplate reader. The tumor cell survival rate was calculated as follows: survival rate (%) = [(OD experimental group − OD blank group)/(OD control group − OD blank group)] × 100%. All experiments were conducted in triplicate.

CT-26 = assay: MTT assay, CT-26 cells; assay type: cell-based; settings: Mus musculus, CT26, 72 h
Experimental: as §1, §2, §3

RKO = assay: MTT assay, RKO cells; assay type: cell-based; settings: Homo sapiens, 72 h
Experimental: as §1, §2, §3

LS-174T = assay: MTT assay, LS-174T cells; assay type: cell-based; settings: Homo sapiens, LS174T, 72 h
Experimental: as §1, §2, §3

LoVo = assay: MTT assay, LoVo cells; assay type: cell-based; settings: Homo sapiens, 72 h
Experimental: as §1, §2, §3

HCT-116 = assay: MTT assay, HCT-116 cells; assay type: cell-based; settings: Homo sapiens, 72 h
Experimental: as §1, §2, §3

DLD-1 = assay: MTT assay, DLD-1 cells; assay type: cell-based; settings: Homo sapiens, 72 h
Experimental: as §1, §2, §3

Caspase-3 = assay: Western blot, Caspase-3 expression in HT-29 cells; assay type: cell-based, human; settings: HT-29, increasing concentrations (2.3, 4.5, 9 μM)
Experimental: (§4) Cells in the logarithmic growth phase were seeded at 600,000 cells per well in 6-well plates and incubated overnight at 37 °C with 5% CO2. CHNQD-02792 (2.3, 4.5, and 9 μM) was added to the experimental group, while an equivalent dilution of DMSO was added to the control group. After 24 h of treatment, the cells were collected from the incubator. The cells were washed twice with pre-cooled PBS, and the proteins were extracted using ice-cold RIPA lysis buffer (RIPA-PMSF, 99:1, v/v). Adherent cells were scraped off the Petri dish with a pre-cooled plastic scraper. Protein concentrations were measured using a BCA kit. Protein samples were mixed with 5× loading buffer, boiled in a metal bath for 6 min, and stored at −20 °C. Proteins of different molecular weights were separated by gel electrophoresis and transferred onto PVDF membranes using wet transfer. The membrane was blocked with 5% skimmed milk powder for 2 h, followed by incubation with the primary antibody overnight at 4 °C. After three washes with TBST (10 min each), the membrane was incubated with the secondary antibody at room temperature for 1 h. It was then washed three times with TBST (10 min each) and analyzed using a gel imaging system with a high-sensitivity ECL luminescent solution.

ERK = assay: Western blot, ERK phosphorylation in HT-29 cells; assay type: cell-based, human; settings: HT-29, Western blot
Experimental: as §4

HT-29 cells [1] = assay: Apoptosis assay (Annexin V-FITC/PI flow cytometry); assay type: cell-based, human
Experimental: Cells in the logarithmic growth phase were seeded at 600,000 cells per well in 6-well plates and incubated overnight at 37 °C in a 5% CO2 incubator. CHNQD-02792 (2.3, 4.5, 9 μM) was added to the experimental group, while the control group received an equal dilution of DMSO. After 48 h, cells were collected, centrifuged at 300× g for 5 min, and washed once with PBS. The cells were gently resuspended and counted. Take 1–5 × 10^5 resuspended cells, centrifuge at 300× g for 5 min, and discard the supernatant. The cells were washed once with PBS, centrifuged again, and the supernatant was discarded. Then, 500 μL of 1× diluted Annexin V Binding Buffer was added to resuspend the cells. Add 5 μL of Annexin V-FITC and 5 μL of PI (50 μg/mL) to the cell suspension. After gently vortexing, incubate the samples at room temperature in the dark for 15–20 min. Immediately analyze the samples using a flow cytometer. The results were analyzed using Novoexpress software (v.1.6.2).

Bax = assay: Western blot, Bax expression in HT-29 cells; assay type: cell-based, human; settings: HT-29, increasing concentrations (2.3, 4.5, 9 μM)
Experimental: as §4

RAW264.7 cells = assay: Inhibition of RAW264.7 cells (normal cells vs cancer cells); assay type: cell-based; settings: Mus musculus
Excerpt: Therefore, to verify the difference between CHNQD-02792 on normal cells and cancer cells, we examined the inhibition of CHNQD-02792 on RAW264.7 cells. […] The inhibition of HT-29 cell colony formation increased with higher concentrations of CHNQD-02792.

Bcl-2 = assay: Western blot, Bcl-2 expression in HT-29 cells; assay type: cell-based, human; settings: HT-29, increasing concentrations (2.3, 4.5, 9 μM)
Experimental: as §4

CDK1 = assay: Western blot, CDK1 expression in HT-29 cells; assay type: cell-based, human; settings: HT-29, increasing concentrations (2.3, 4.5, 9 μM)
Experimental: as §4

Cyclin B1 = assay: Western blot, Cyclin B1 expression in HT-29 cells; assay type: cell-based, human; settings: HT-29, increasing concentrations (2.3, 4.5, 9 μM)
Experimental: as §4

[2] = system: LPS-induced RAW264.7 cells; set-up: method as in PMID 36758306; settings: 50 nM; cited from earlier work
[3] = system: LPS-induced RAW264.7 cells; set-up: method as in PMID 36758306; settings: 10 nM; cited from earlier work
JNK = assay: Western blot, JNK phosphorylation in HT-29 cells; assay type: cell-based, human; settings: HT-29, Western blot
Experimental: as §4

HT-29 cells [4] = assay: Cell cycle assay (PI, flow cytometry); assay type: cell-based, human; settings: highest concentration, 48 h, control 16.42%
Experimental: Cells in the logarithmic growth phase were seeded at 350,000 cells per well in 6-well plates and incubated overnight at 37 °C with 5% CO2. CHNQD-02792 (2.3, 4.5, 9 μM) was added to the experimental group, while an equal dilution of DMSO was added to the control group. After 48 h, cells were collected, centrifuged at 300× g for 5 min at 4 °C, and resuspended in 1 mL of ice-cold PBS. This step was repeated, and the supernatant was discarded. The cells were then resuspended in 300 μL of PBS, and 700 μL of pre-cooled anhydrous ethanol was added dropwise for fixation at 4 °C overnight. Within 12–24 h, cells were centrifuged at 1000× g for 5 min, and the supernatant was discarded. The cells were washed with 1 mL of pre-cooled PBS, centrifuged again, and resuspended in 500 μL of PBS. RNase A and PI were then added to each tube, […]. The cells were incubated at 4 °C with RNase A and PI in the dark for 30 min. Data were collected using a flow cytometer (488 nm laser excitation, 620/29 nm filter), and results were analyzed using FlowJo software (v.10.8.1).

HT-29 cells [5] = assay: Plate colony formation assay; assay type: cell-based, human; settings: 9 μM, 14 days
Experimental: Cells in the logarithmic growth phase were seeded at 1000 per well in 6-well plates and incubated overnight at 37 °C with 5% CO2. CHNQD-02792 (2.3, 4.5, and 9 μM) was added to the experimental group, while the control group received an equal dilution of DMSO. The medium color was monitored regularly, and the medium was replaced simultaneously in both groups. After 14 days, clonal clusters (approximately 50 cells) were formed. The cells were washed with PBS, fixed with 4% paraformaldehyde for 1 h, stained with crystal violet for 30 min, washed again with PBS, dried, photographed, and analyzed using Image J software (v 1.8.0.) to count colonies. The cell proliferation rate was calculated by comparing the experimental group with the control group treated with DMSO.

Row | IC50 (HT-29) [µM] | IC50 (LoVo) [µM] | IC50 (HCT-116) [µM] | IC50 (DLD-1) [µM] | SMILES | IC50 (CT-26) [µM] | IC50 (RKO) [µM] | IC50 (LS-174T) [µM] | also measured
1 | > 50 | > 50 | > 50 | > 50 | COc1ccc([C@]2(O)c3c(ccc4c3O[C@](C)(CCC=C(C)C)C=C4)N(Cc3cccc(Br)c3)C(=O)[C@H]2OC)cc1 [Compound 4] | > 50 | 48.3 | > 50 | 
2 | > 50 | 25 | > 50 | > 50 | COc1ccc([C@]2(O)c3c(ccc4c3O[C@@](C)(CCC=C(C)C)C=C4)N(Cc3cccc(Br)c3)C(=O)[C@H]2OC)cc1 [Compound 7] | > 50 | 22 | > 50 | 

Continued, compound first:

Row | SMILES | IC50 (HT-29) [µM] | IC50 (LoVo) [µM] | IC50 (HCT-116) [µM] | IC50 (DLD-1) [µM] | IC50 (CT-26) [µM] | IC50 (RKO) [µM] | IC50 (LS-174T) [µM] | also measured
3 | O=c1[nH]cc(F)c(=O)[nH]1 [5-fluorouracil, reference compound] | 15.6 |  |  |  |  |  |  | 
4 | CO[C@@H]1C(=O)Nc2ccc3c(c2[C@@]1(O)c1cccc(Br)c1)O[C@@](C)(CCC=C(C)C)C=C3 [Compound 12] | 42.8 | > 50 | 25.8 | 11.6 | 26.3 | 37.3 | 7.7 | 
5 | CO[C@@H]1C(=O)Nc2ccc3c(c2[C@@]1(O)c1cccc(Br)c1)O[C@](C)(CCC=C(C)C)C=C3 [Compound 13] | 4.5 | 28.3 | 50 | > 50 | > 50 | 28 | 24.3 | Caspase-3 protein expression (Caspase-3): significantly increased; phosphorylation of ERK (ERK): inhibited; Q4 (early apoptotic cells) (HT-29 cells [1]; 9.0 μM, 48 h, HT-29, Annexin V-FITC/PI, control 5.31%): 20.23%; proportion of apoptotic cells (HT-29 cells [1]; 48 h of treatment, HT-29, control 6.81%): 26.10%; Bax protein expression (Bax): increased; IC50 (RAW264.7 cells): 27.2 µM; Bcl-2 protein expression (Bcl-2): markedly decreased; CDK1 protein expression level (CDK1): decreased; Cyclin B1 protein expression level (Cyclin B1): decreased; IL-6 level [2]: significantly inhibiting; NO release [3]: significantly inhibiting; phosphorylation of JNK (JNK): increased; proportion of cells in the G2/M phase (HT-29 cells [4]): 31.78%; growth of HT-29 cells, plate cloning assay (HT-29 cells [5]): completely inhibited
